Here are results for twelve compounds from patent US20040023901A1, “Nucleoside 5'-monophosphate mimics and their prodrugs” (priority 2002, published 2004).

The conditions of data set [1]: bovine.
Experimental: (§15) Fetal calf serum purchased from HyClone Corporation was mixed 1:1 with each compound containing Tris-HCl buffer and MgCl2. Typically the total volume used for the experiment was 500 μl.
(§16) The final concentrations of the reaction components were as follows:
(§17) The reaction mixtures were made up and incubated at 37° C. At appropriate times aliquots of 25 μl were removed and added to 65 μl ice-cold methanol. These solutions were incubated for at least one hour at −20° C. and typically overnight. After incubation samples were centrifuged for at least 20 minutes at high speed in a microcentrifuge. The supernatant was transferred to a clean tube and the extract was dried under vacuum in a LabConco Centrivap Concentrator. The dried extracts were resuspended in dH2O and filtered to remove particulate before analysis on reverse phase HPLC.
(§18) The reverse phase HPLC columns used for the analysis were either a Phenomenex C18 Aqua column (2×100 mm) or the Phenomenex C18 Aqua column (3×150 mm) used with the appropriate guard column. The HPLC was run at 0.2 ml/min (for the 2×100 mm column) or at 0.5 ml/min (for the 3×150 mm column) with the following buffer system: 5 mM tetrabutylammonium acetate, 50 nM ammonium phosphate, and an acetonitrile gradient running from 5% up to as high as 60%. The amount of remaining parent compound at each time point was used to determine the half-life of the compound. […] Unmodified nucleoside monophosphates were used as positive controls.
Data set [2] deals with purified human type II IMPDH (Homo sapiens, UniProt P12268). The data set is described as follows: Assay for inhibition of IMPDH activity (human type II). In kind it is biochemical. The following applies: 50 uM IMP, 150 uM NAD, 25° C. The method, then: (§1) The assays employed to measure the inhibition of inosine monophosphate dehydrogenase (IMPDH) activity are described below. The effectiveness of the compounds of the present invention as inhibitors of IMPDH enzymes was determined in the following assays. This assay was used to measure the ability of the nucleotide mimics of the present invention to inhibit the enzymatic reaction catalyzed by IMPDH enzymes. The assay is useful for measuring the activity of IMPDH from several organisms, including human, fungal, and bacterial isoforms. In the enzymatic reaction, the oxidation of inosine 5′-monophosphate (IMP) to xanthosine 5′-monophosphate (XMP) is coupled to the reduction of nicotinamide adenine dinucleotide (NAD). This reaction is monitored at 340 nm using a UV/VIS spectrophotometer or at 474 nm using a fluorometer (excitation wavelength=344 nm). This assay is a modification of a reported method (W. Wang and L. Hedstrom, “A Potent ‘Fat Base’ Nucleotide Inhibitor of IMP Dehydrogenase,” Biochemistry 1998, 37, 11949-52).
(§2) Assay Buffer Conditions: (200 uL-total/reaction)
(§3) 30 nM purified human type II IMPDH, or
(§4) 7.5 nM purified Candida albicans IMPDH
(§5) The compounds were tested at various concentrations up to 500 uM final concentration. The standard IMPDH assay is performed in a 96-well plate (Corning). An appropriate volume of assay buffer, containing the substrates IMP and NAD, was pipetted into the plate wells. Nucleoside derivatives of the present invention were added to the reactions at the desired concentrations. The reactions were initiated by the addition of enzyme. The reactions were allowed to proceed for 5 minutes at 25° C. The production of NADH was monitored at 340 nm on a microplate spectrophotometer (Molecular Devices Corp, Sunnyvale, Calif.). Initial velocity data (mA min^−1) was collected and fit to the equations below. Blank reactions were prepared in parallel with the test reactions in which enzyme was omitted from the reactions, substituted by an appropriate volume of enzyme diluent.
(§6) The percentage of inhibition was calculated according to the following equation:
(§7) % Inhibition=[1−(mA min^−1 in test reaction−mA min^−1 in blank)/(mA min^−1 in control reaction−mA min^−1 in blank)]×100.
(§8) Each inhibitor was titrated over an appropriate range of concentrations, and inhibition constants were determined using the following equations where v=initial velocity, Vm=maximal velocity, S=substrate, I=inhibitor, Km=Michaelis constant, and Ki=inhibition constant:
(§9) Michaelis-Menten Equation: […]
(§10) Competitive Inhibition Equation:
(§11) Inhibition constants (Ki) for irreversible inhibitors of IMPDH were determined using the following three equations where kobs=observed rate constant, t=time, A=absorbance at time t, A0=initial absorbance at time zero, V0=initial rate, S=substrate, I=inhibitor, k2=[…] rate constant, Km=Michaelis constant, Ki, app=apparent inhibition constant, and Ki=inhibition constant:
(§12) Irreversible Inhibition Equations 1-3:
(§13) A−A0=V0[1−exp(−kobst)] (equation 1)
(§14) Kobs=k2[I]/(Ki, app+[I]) (equation 2)

A further data set in a line: in vitro. The note with it: bovine, 10% (v/v) fetal calf serum, pH 7.4.
Data set [3] concerns the target purified Candida albicans IMPDH (Candida albicans, UniProt O00086). The data set is described as follows: Assay for inhibition of IMPDH activity (C. albicans). The note with it: for Ki: C. albicans IMPDH, 50 uM IMP, 150 uM NAD, 25° C.; for inhibition at 100 µM: read-out: % Inhibition at 100 μM C. albicans. In kind it is biochemical. The method, then:
as §1, §2, §3, §4, §5, §6, §7, §8, §9, §10, §11, §12, §13, §14

A short description of data set [4]: Serum stability assessment in fetal calf serum. The following applies: 10% (v/v) fetal calf serum, 37° C., 500 μM nucleotide mimic, time points through 24 hours.
Experimental: as §15, §16, §17, §18

Like-named read-outs stand apart in the source and are kept apart here.

purified Candida albicans IMPDH, sequence (O00086 whole entry): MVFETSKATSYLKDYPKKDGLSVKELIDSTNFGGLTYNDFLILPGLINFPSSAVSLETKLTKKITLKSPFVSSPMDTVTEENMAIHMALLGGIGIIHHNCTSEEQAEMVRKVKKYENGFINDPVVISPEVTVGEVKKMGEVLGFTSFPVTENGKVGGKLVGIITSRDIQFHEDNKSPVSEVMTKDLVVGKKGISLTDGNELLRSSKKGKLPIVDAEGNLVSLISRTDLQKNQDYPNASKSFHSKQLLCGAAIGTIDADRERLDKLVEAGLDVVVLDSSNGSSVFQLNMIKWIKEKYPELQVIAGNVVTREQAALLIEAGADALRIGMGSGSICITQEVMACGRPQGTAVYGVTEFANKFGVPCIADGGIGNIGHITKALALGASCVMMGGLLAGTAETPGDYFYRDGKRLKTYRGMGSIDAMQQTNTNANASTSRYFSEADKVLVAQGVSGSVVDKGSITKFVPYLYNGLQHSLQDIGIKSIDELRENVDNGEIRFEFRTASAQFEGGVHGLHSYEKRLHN
Experimental for in vitro: as §15, §16, §17, §18

As to “5-Ethynyl-1-(5-methylphopsphonyl-β-D-ribofuranosyl)imidazole-4-carboxamide [Compound 10]”, the “Serum t1/2” value in data set [1] is greater than 8 h.

Take `NC(=O)c1ncn([C@@H]2O[C@H](COP(=O)(O)S)[C@H](O)C2O)n1` (stereo partly drawn) [Compound 1, 1-β-D-ribofuranosyl-1,2,4-triazole-3-carboxamide 5′-phosphothioate]: the Ki in data set [2] was 0.94 µM; in data set [3], 1.34 µM. In “in vitro”, this compound gave a half-life at 500 μM of 18 h.

On to `C#Cc1c(C(N)=O)ncn1[C@@H]1O[C@H](COP(=O)(O)S)[C@H](O)C1O` (stereo partly drawn) [Compound 2, 5-Ethynyl-1-(1-D-ribofuranosyl)imidazole-4-carboxamide 5′-phosphorothioate], for which the Ki in data set [2] was found to be 34.2 µM. Besides, in data set [3], the inhibition at 100 µM worked out at 82%.

`NC(=O)c1ncn([C@@H]2O[C@H](COCP(=O)(O)O)[C@@H](O)[C@H]2O)n1` [Compound 19, 1-[5-O-(Dihydroxyphosphinyl)methyl-β-D-ribofuranosyl]-1,2,4-triazole-3-carboxamide]: in data set [2], the Ki is 85 µM.

Take `NC(=O)c1ncn([C@@H]2O[C@H](CP(=O)(O)O)[C@@H](O)[C@H]2O)n1` [Compound 39, 1-[5-Deoxy-5-(dihydroxyphosphinyl)-β-D-ribofuranosyl]-1,2,4-triazole-3-carboxamide]: the figures for the Ki in data set [2] and in data set [3] were 1.82 µM and 1.48 µM, respectively.

Consider `NC(=O)c1ncn([C@@H]2O[C@H](C[PH](=O)O)[C@H](O)C2O)n1` (stereo partly drawn) [Compound 40, 1-[5-Deoxy-5-(hydroxyl-H-phosphinyl)-β-D-ribofuranosyl]-11,24-triazole-3-carboxamide], for which the half-life at 500 μM in the data set “in vitro” is greater than 24 h.

Regarding `NC(=O)c1ncn([C@@H]2O[C@H](CP(=O)(O)O)[C@H](O)C2O)c1O` (stereo partly drawn) [Compound 44, 4-Carbamoyl-1-[5-deoxy-5-(dihydroxyphosphinyl)-β-D-ribofuranosyl]-1,3-imidazolium-5-olate], in data set [2], the Ki is 7.92 µM. The inhibition at 100 µM in data set [3] was 98.1%.

For the compound `NC(=O)c1ncn([C@@H]2O[C@H](CC(F)(F)P(=O)(O)O)[C@H](O)C2O)n1` (stereo partly drawn) [Compound 48], the Ki is 27.1 µM in data set [2] and 20.4 µM in data set [3]. The compound also showed a half-life at 500 μM in the data set “in vitro” greater than 24 h.

In data set [2], `NC(=O)c1ncn([C@@H]2O[C@H](CC(F)(F)P(=O)(O)O)[C@H](O)C2O)c1O` (stereo partly drawn) [Compound 50, 4-Carbamoyl-1-[5,6-dideoxy-6-(dihydroxyphosphinyl)-6,6-difluoro-β-D-allofuranosyl]-1,3-imidazolium-5-olate] had a Ki of 2.04 µM. Moreover, the inhibition at 100 µM in data set [3] came to 71.5%.

As to `NC(=O)c1ncn([C@@H]2O[C@H](CO[PH](O)=S)[C@H](O)C2O)n1` (stereo partly drawn) [Compound 53, 1-[5-O-(H-Thiophosphonyl)-β-D-ribofuranosyl]-1,2,4-triazole-3-carboxamide], the Ki in data set [2] turned out to be 34.7 µM; in data set [3], 10.7 µM.

For `C#Cc1c(C(N)=O)ncn1[C@@H]1O[C@H](COP(=O)(O)O)[C@@H](O)[C@H]1O` [EICAR 5′-monophosphate], in data set [4], the “Serum t1/2” value stood at 3 h.

In the case of `NC(=O)c1ncn([C@@H]2O[C@H](COP(=O)(O)O)[C@@H](O)[C@H]2O)n1` [Ribavirin 5′-monophosphate], in data set [4], the “Serum t1/2” value was determined as 6 h.

In general, Ki refers to a dissociation constant, usually derived from enzyme kinetics or from competition with a known ligand. A lower Ki goes with tighter binding. What is called half-life is how long it takes for the measured level to halve. Low values mean fast loss, high ones slow loss. As usually defined, the inhibition is the relative decrease from the control value, in per cent.
